Experimental data reported in US20120329879A1, “BETA-ADRENERGIC RECEPTOR AGONISTS AND USES THEREOF” (THE UNIVERSITY OF TENNESSEE RESEARCH FOUNDATION, priority 2010, published 2012).
“Also recorded” adds a separate entry of the source.

How the values were obtained:
[1] = Plasma levels of Compound 2 after intravenous or topical administration to rats (LC/MS/MS); format: in vivo; details: rat
Protocol: B/PK was characterized following intravenous administration to rats. Following drug administration, blood samples (2-300 μL) were withdrawn from the jugular vein catheter at regular intervals after dosing (5, 15, 30, 45 minutes and 1, 2, 4, 8, 16, and 24 hours) into K3-EDTA anti-coagulated sampling tubes. Plasma was obtained by centrifugation and stored at −80° C. until analysis. The heart, lung and spleen were harvested in order to determine the tissue distribution of Compound 2. Cumulative urinary samples were collected over 24 hours post-dose and stored at −80° C. until analysis. B/PK was characterized following topical administration. Following drug administration to rats, eyes were enucleated, irrigated with saline, and vitreous humor aspirated from the inner region of the vitreous chamber using an 18-gauge needle. Blood samples were obtained simultaneously in order to determine the extent of systemic exposure following topical administration. Vitreous humor and blood samples were obtained at regular intervals after dosing. Time points were determined based upon concentration time profiles obtained following intravenous administration of Compound 2. For data analyses B/PK parameters were derived from the obtained plasma, vitreous humor, urine and feces concentration data by standard non-compartmental analysis. Terminal half-life was determined as the ratio of ln 2 divided by λz, the negative of the slope of the linear regression of the natural log concentration vs. time profile during the terminal phase. Systemic and ocular exposure was determined as plasma or ocular area under the concentration-time curve (AUC) using the trapezoidal rule. Compound 2 concentration determination and metabolite profiling is conducted using a validated LC/MS/MS assay based on the methodology described (14-15). The LC-MS/MS system comprises a Shimadzu HPLC system (Kyoto, Japan), API-4000 Q Trap tandem mass spectrometer (Foster City, Calif., USA) equipped with a turbo ion-spray and a HTC-PAL autosampler (Leap Technologies, Carrboro, N.C., USA).

[2] = system: retinal capillaries of diabetic rats; assay: Quantitation of acellular (degenerate) capillaries in trypsin-digested retinal vasculature; format: in vivo, rat; details: 1 mM eye drops, 8 months of diabetes, hydrochloride
Protocol: For the acellular capillary counts, retinas from an eye of control, diabetic, and diabetic+2 were used. Eyes were enucleated and placed into 10% buffered formalin for 5 days. The retina was dissected in 3% crude trypsin solution (Difco Bacto Trypsin 250, Detroit, Mich.) containing 0.2 M sodium fluoride at 37 C for 2 hours (5). The neural retina was gently brushed away and the remaining retinal vascular tree was dried onto a glass slide. Once the isolated retinal vascular tree was dried onto the glass slide, the slide was stained with hematoxylin-periodic acid-Schiff. Degenerate (acellular) capillaries were counted in mid-retina in six to seven fields evenly spaced around the retina. Degenerate capillaries were identified as capillary-sized tubes having no nuclei anywhere along their length. Degenerate capillaries were counted only if their average diameter was at least 20% of that found in surrounding healthy capillaries (6-7).

retina of diabetic rats = assay: Assessment of retinal thinning and loss of cells in ganglion cell layer; format: in vivo, rat
Source text: Assessment of retinal thinning and loss of cells in ganglion cell layer Formalin-fixed paraffin sections were stained with toluidine blue for light microscopy and morphometry of retinal thickness (8). Pictures were taken at four locations in the retina (both sides of the optic nerve and mid-retina) at 400×. The nuclei in the retinal ganglion cell layer (GCL) were counted in a […] section of each picture, and the thickness of the inner retina (from the top of the inner nuclear layer to the inner limiting membrane) was assessed using a Retiga camera attached to a Nikon Biophot light microscope with Qcapture software (Qlmaging, Burbay, BC, Canada). Retinal thickness and number of cells in the ganglion cell layer were measured using OpenLab software (Improvision, Lexington, Mass.). Retinal thickness and live retinal imaging were assessed using rodent OCT. Each layer of the retina was examined multiple times on the same animal in a non-invasive way to determine changing in specific regions over the course of the experiment. […] Light microscopy was used for histological examination of neuronal changes, which often occur in the acute phases. Formalin-fixed paraffin sections were stained with toluidine blue for light microscopy and morphometry of retinal thickness. Pictures were taken at four locations in the retina (both sides of the optic nerve and mid-retina) at 400×. The nuclei in the retinal ganglion cell layer (GCL) were counted in a 100 μm section of each picture. The thickness of the inner retina from the top of the inner nuclear layer to the inner limiting membrane was assessed using a Retiga camera attached to a Nikon Biophot light microscope with Qcapture software (Qlmaging, Burbay, BC, Canada). Retinal thickness and number of cells in the retinal ganglion cell layer were measured using OpenLab software (Improvision, Lexington, Mass.). Unpaired T-tests were used to compare data from control, diabetic, and diabetic+eye drop treated animals, with P<0.05 being accepted as significant.

[3] = system: Human retinal endothelial cells (HREC); assay: TNFalpha and cleaved caspase 3 ELISA in retinal endothelial cells cultured in high glucose; format: cell-based; details: 50 nM
Protocol: Human retinal endothelial cells (HREC) were purchased from Cell Systems (Kirkland, Wash.) and grown in either basal (5 mM glucose) or growth (25 mM glucose) media. Both media is supplemented with 10% FBS and antibiotics. The day prior to experiments, cells are serum-starved for 18-24 hours. Rat Müller cells (rMC-1) were grown in DMEM medium with 5 mM glucose or 25 mM glucose. Media was supplemented with 10% FBS and antibiotics. Cells were serum starved prior to all experiments for 18-24 hours.
Human retinal endothelial cells (HREC) and rat Muller cells (rMC-1) in both glucose conditions were treated with Compound 2 at doses of 10 nM, 50 nM, 100 nM, 1 μM, and 10 μM of Compound 2. Cells of each type were grown in medium containing L-glucose to control for changes in osmolarity. 10 μM isoproterenol was also used for each condition as a positive control. Müller cells were treated for 1 hour and 24 hours, while HREC were treated for 30 and 60 minutes.
Following treatment, cells were collected into lysis buffer containing protease and phosphatase inhibitors. ELISA analyses for TNFalpha, cleaved caspase 3, and PKA were done according to manufacturers instructions. Data is compared against non-treated cells and cells at the various doses. A Kruskal-Wallis test is done, with a Dunn's test for secondary analyses. […] The dose that decreases TNFalpha and caspase 3 levels also increases PKA activity.

[4] = system: retinal vasculature of hypoxic mice; assay: Oxygen-induced retinopathy model of proliferative diabetic retinopathy; format: in vivo; details: 1 mM eye drops once daily on days 13, 14, 15, sacrificed day 17
Protocol: A model of oxygen-induced retinopathy was used to determine the effects in vivo of Compound 2 on mice. Mice were placed into a chamber with 100% oxygen at day 7 of life. On day 12, they were removed from the chamber into normal air. The retina interprets this as hypoxia and starts angiogenesis. Mice were treated with 1 mM Compound 2 in eye drops once daily on days 13, 14, 15. Animals were sacrificed on day 17. FIGS. 19A-19 Retinal flat mounts were prepared.

[5] = delayed treatment: 6 month diabetic rats, Compound 2 for 2 months
[6] = diabetic rats, 1 mM eye drops as preventative, central retina, hydrochloride

COc1cc(CCNC[C@H](O)c2ccc(O)c(O)c2)cc(OC)c1OC.Cl (single isomer, unassigned) [Compound 2, 4-[1-hydroxy-2-(1-ethylamino-3-,4-,5-trimethoxyphenyl)ethyl]benzene-1,2-diol hydrochloride]
concentration at 45 min ([1]; Lewis, plasma, over 45 minutes, dose and route not stated): ~6 ng/mL | concentration at 1 h ([1]; plasma, intravenous or topical, 10 mg/kg, limit of detection, read-out: plasma level after 1 hour): < 2.5 ng/mL | time of clearance from plasma ([1]; intravenous, 1 mg/kg): < 1 h | plasma concentration ([1]; intravenous, 10 mg/kg): ~1000 ng/mL | time of clearing from plasma ([1]; intravenous, 10 mg/kg): ≤ 30 min | plasma concentration at the 2 time points with detection ([1]; topical, 10 mg/kg): ~80 ng/mL | detection in plasma after topical delivery ([1]; topical, therapeutic dose 1 mM or 1 mg/kg, hydrochloride): did not result in detectable Compound 2 in plasma; also recorded: below the limits of detection; also recorded: not detected | Plasma concentration at start of decline ([1]; dose and route not stated): about 100 ng/ml | numbers of degenerate capillaries [2]: significantly reduced numbers of degenerate capillaries; also recorded: significantly reduce numbers of degenerate capillaries to levels similar to controls | increase in retinal thickness over diabetic rats alone (retina of diabetic rats; [5]): ~50% | loss of cells in the ganglion cell layer, delayed treatment (retina of diabetic rats; [5]): no loss of cells in the ganglion cell layer | inner retinal thickness (retina of diabetic rats; [6]): loss of inner retinal thickness was prevented; also recorded: maintains the retinal thickness | number of cells in the ganglion cell layer (retina of diabetic rats; [6]): prevented in the Compound 2-treated animals; also recorded: maintains the retinal thickness and cell number | loss of retinal thickness and apoptosis of cells of the ganglion cell layer (retina of diabetic rats; diabetic rats, 50 mM eye drops 1 time each day for 8 months): effective in preventing the loss of retinal thickness and apoptosis of cells of the ganglion cell layer | reduction of TNFalpha levels versus not-treated controls ([3]; REC in 25 mM glucose): 23% | reduction of caspase 3 levels versus not-treated controls ([3]; REC in 25 mM glucose): 54% | TNFalpha levels, in words ([3]; REC in high glucose, vs non-treated): significantly reduced | cleaved caspase 3 levels, in words ([3]; REC in high glucose, vs non-treated, hydrochloride): significantly decreased caspase 3 levels; also recorded: significantly reduced levels of cleaved caspase 3 | development of retinal vasculature (retinal flat mounts) [4]: the retina is much more developed and appears normal
